Data taken from US5234907A, “Synthetic vasoactive intestinal peptide analogs” (Hoffmann-La Roche Inc., priority 1991, dated 1993).
*1 amine or outer side, *2 acyl side, *3 side chain or, on linkers, in order; H or OH if unused. [ ]: non-standard residue; d: D form. Cys(Acm) = CC(=O)NCSC[C@H](N[*:1])C(=O)[*:2]; Phe(4-F) = N[C@@H](Cc1ccc(F)cc1)C(=O)O; NMeA = CN[C@@H](C)C(=O)O; Nle = CCCC[C@H](N)C(=O)O

How the values were obtained:
[1] = tested on: guinea pig tracheal smooth muscle; assay: Tracheal relaxant activity of VIP analogs on isolated guinea pig tracheal rings; type: cell-based; settings: cumulative concentration response; responses as % of maximum response to VIP (10^-6 M=100%); at least three tissues pooled; linear regression
Experimental: The relaxant activity of the VIP analogs was studied in a model utilizing guinea pig trachea. [Wasserman, M. A. et al., in Vasoactive Intestinal Peptide, S. I. Said, ed., Raven Press, N.Y. 1982, pp 177-184]; All tissues were taken from male albino guinea pig weighing 400-600 g, anesthesized with urethane (2 g/kg, i.p.). After exanguination, the trachea were removed and divided into four ring segments (3 mm length). Each ring was suspended by 30 gauge stainless steel wires in a 10 mL jacketed tissue bath and attached via 4-0 silk thread to a Grass force displacement transducer (model FT03C, Grass Instruments Co., Quincy, Ma), for isometric recording of tension. The smooth muscle was bathed in modified Krebs solution of the following composition: NaCl, 120 mM; KCl, 4.7 mM; CaCl2, 2.5 mM; MgSO.4 7H2 O, 1.2 mM; NaHCO3, 25 mM; K2 HPO4 monobasic, 1.2 mM; and dextrose, 10 mM. Tissue baths were maintained at 37° C. and constantly bubbled with 95% O2 and 5% CO2. Responses were recorded on an 8 channel and a 4 channel Hewlett-Packard (model 7702B and 7754A, respectively) recorder (Hewlett-Packard, Paramus, N.J.). […] Frequent readjustments of tension were required during the 60 minute stabilization period which followed. Tissues were rinsed at 15 minute intervals.
Cumulative concentration response curves were obtained for each tissue by successive […] increases in the bath concentration of VIP or VIP analogs according to the method of VanRossum [Arch. Int. Pharmacodyn., 143, 299-330 (1963)]. Only one cumulative dose response curve was obtained on a single tissue. To minimize variability between tissues, relaxant responses were expressed as a percentage of the maximum response obtained to VIP (10^-6 M=100%) added at the end of each concentration response experiment. Responses obtained from at least three tissues were pooled and EC50 values were determined by linear regression.

guinea pigs = assay: In vivo bronchodilator activity by tracheal instillation against histamine-induced bronchoconstriction; set-up: species or system guinea pig; settings: 100 μl, anesthetized male Hartley guinea pigs, histamine challenge 50 μg/kg i.v., inhibition of tracheal pressure increase
Experimental: The in vivo bronchodilator activity of VIP analogs in guinea pigs was assessed by the tracheal instillation route of administration. This technique utilized male guinea pigs (Hartley strain, Charles River) weighing 400-600 g. Animals were anesthetized with urethane (2 g/kg) intraperitoneally and a polyethylene cannula was inserted into the jugular vein for intravenous drug administration.
The animals were tracheotomized and dosing solutions of distilled water or test compound dissolved in distilled water were administered into the trachea, approximately three-quarter the distance to the carina with a pipette. The concentration of the dosing solution was adjusted to deliver a constant volume of 100 μl. The animals were placed supine for one minute to aid drug delivery to the lung. One minute later, spontaneous breathing was arrested with succinylcholine chloride (1.2 mg/kg) administered intravenously, and the animals were ventilized with a Harvard Model 680 small animal respirator set at 40 breaths/min and 4.0 cm^3 stoke volume. The animals were challenged with a maximal constrictory dose of histamine (50 μg/kg, i.v.) and tracheal pressure (cm of water) was recorded from a Statham pressure transducer (P 32 AA).
The change in tracheal pressure was averaged for at least 3 control and 3 drug-treated animals and percent inhibition was calculated. The relative potency of compounds administered by the instillation route was determined by administering various doses of test compound and calculating the median inhibitory dose (ID50 value). The ID50 was determined from log dose-reasons curves generated by at least 3 doses that caused inhibitory effects between 10% and 90%. The correlation coefficient for the regression line of each antagonist was always greater than 0.95.
For determination of the time course of inhibition for various compounds, the time between administration of compound and challenge with histamine was varied. The time course of activity was calculated as the time when inhibition decreased to 40%.

Substance	EC50 [1] [nM]	Bronchodilator activity in guinea pigs, ED50 (guinea pigs) [µg]
Ac--[Lys^12, Nle^17, Ala^19, Ala^25, Leu^26, Lys^27,28, Ala^29-31 ]--VIP (Ac-HSDAVFTDNYTKLRKQ[Nle]AAKKYLNALKKAAA-NH2; SMILES CCCC[C@H](NC(=O)[C@H](CCC(N)=O)NC(=O)[C@H](CCCCN)NC(=O)[C@H](CCCNC(=N)N)NC(=O)[C@H](CC(C)C)NC(=O)[C@H](CCCCN)NC(=O)[C@@H](NC(=O)[C@H](Cc1ccc(O)cc1)NC(=O)[C@H](CC(N)=O)NC(=O)[C@H](CC(=O)O)NC(=O)[C@@H](NC(=O)[C@H](Cc1ccccc1)NC(=O)[C@@H](NC(=O)[C@H](C)NC(=O)[C@H](CC(=O)O)NC(=O)[C@H](CO)NC(=O)[C@H](Cc1c[nH]cn1)NC(C)=O)C(C)C)[C@@H](C)O)[C@@H](C)O)C(=O)N[C@@H](C)C(=O)N[C@@H](C)C(=O)N[C@@H](CCCCN)C(=O)N[C@@H](CCCCN)C(=O)N[C@@H](Cc1ccc(O)cc1)C(=O)N[C@@H](CC(C)C)C(=O)N[C@@H](CC(N)=O)C(=O)N[C@@H](C)C(=O)N[C@@H](CC(C)C)C(=O)N[C@@H](CCCCN)C(=O)N[C@@H](CCCCN)C(=O)N[C@@H](C)C(=O)N[C@@H](C)C(=O)N[C@@H](C)C(N)=O) [Ac--(SEQ ID NO: 22)--NH2]	0.24	0.046
Ac--[Lys^12, Nle^17, Ala^19, Val^26, Thr^28, Ala^29-31 ]--VIP (Ac-HSDAVFTDNYTKLRKQ[Nle]AAKKYLNSVLTAAA-NH2; SMILES CCCC[C@H](NC(=O)[C@H](CCC(N)=O)NC(=O)[C@H](CCCCN)NC(=O)[C@H](CCCNC(=N)N)NC(=O)[C@H](CC(C)C)NC(=O)[C@H](CCCCN)NC(=O)[C@@H](NC(=O)[C@H](Cc1ccc(O)cc1)NC(=O)[C@H](CC(N)=O)NC(=O)[C@H](CC(=O)O)NC(=O)[C@@H](NC(=O)[C@H](Cc1ccccc1)NC(=O)[C@@H](NC(=O)[C@H](C)NC(=O)[C@H](CC(=O)O)NC(=O)[C@H](CO)NC(=O)[C@H](Cc1c[nH]cn1)NC(C)=O)C(C)C)[C@@H](C)O)[C@@H](C)O)C(=O)N[C@@H](C)C(=O)N[C@@H](C)C(=O)N[C@@H](CCCCN)C(=O)N[C@@H](CCCCN)C(=O)N[C@@H](Cc1ccc(O)cc1)C(=O)N[C@@H](CC(C)C)C(=O)N[C@@H](CC(N)=O)C(=O)N[C@@H](CO)C(=O)N[C@H](C(=O)N[C@@H](CC(C)C)C(=O)N[C@H](C(=O)N[C@@H](C)C(=O)N[C@@H](C)C(=O)N[C@@H](C)C(N)=O)[C@@H](C)O)C(C)C) [Ac--(SEQ ID NO: 10)--NH2]	0.3	0.82
Ac--[Lys^12, Nle^17, Ala^19, Val^26, Thr^28, Gly^29, Lys^30 ]--VIP (Ac-HSDAVFTDNYTKLRKQ[Nle]AAKKYLNSVLTGK-NH2; SMILES CCCC[C@H](NC(=O)[C@H](CCC(N)=O)NC(=O)[C@H](CCCCN)NC(=O)[C@H](CCCNC(=N)N)NC(=O)[C@H](CC(C)C)NC(=O)[C@H](CCCCN)NC(=O)[C@@H](NC(=O)[C@H](Cc1ccc(O)cc1)NC(=O)[C@H](CC(N)=O)NC(=O)[C@H](CC(=O)O)NC(=O)[C@@H](NC(=O)[C@H](Cc1ccccc1)NC(=O)[C@@H](NC(=O)[C@H](C)NC(=O)[C@H](CC(=O)O)NC(=O)[C@H](CO)NC(=O)[C@H](Cc1c[nH]cn1)NC(C)=O)C(C)C)[C@@H](C)O)[C@@H](C)O)C(=O)N[C@@H](C)C(=O)N[C@@H](C)C(=O)N[C@@H](CCCCN)C(=O)N[C@@H](CCCCN)C(=O)N[C@@H](Cc1ccc(O)cc1)C(=O)N[C@@H](CC(C)C)C(=O)N[C@@H](CC(N)=O)C(=O)N[C@@H](CO)C(=O)N[C@H](C(=O)N[C@@H](CC(C)C)C(=O)N[C@H](C(=O)NCC(=O)N[C@@H](CCCCN)C(N)=O)[C@@H](C)O)C(C)C) [Ac--(SEQ ID NO: 11)--NH2]	0.58	0.58
Ac--[N--Me--Ala^1, Lys^12, Nle^17, Ala^19, ^26, Thr^28 ]--VIP (Ac-[NMeA]SDAVFTDNYTKLRKQ[Nle]AAKKYLNSVLT-NH2; SMILES CCCC[C@H](NC(=O)[C@H](CCC(N)=O)NC(=O)[C@H](CCCCN)NC(=O)[C@H](CCCNC(=N)N)NC(=O)[C@H](CC(C)C)NC(=O)[C@H](CCCCN)NC(=O)[C@@H](NC(=O)[C@H](Cc1ccc(O)cc1)NC(=O)[C@H](CC(N)=O)NC(=O)[C@H](CC(=O)O)NC(=O)[C@@H](NC(=O)[C@H](Cc1ccccc1)NC(=O)[C@@H](NC(=O)[C@H](C)NC(=O)[C@H](CC(=O)O)NC(=O)[C@H](CO)NC(=O)[C@H](C)N(C)C(C)=O)C(C)C)[C@@H](C)O)[C@@H](C)O)C(=O)N[C@@H](C)C(=O)N[C@@H](C)C(=O)N[C@@H](CCCCN)C(=O)N[C@@H](CCCCN)C(=O)N[C@@H](Cc1ccc(O)cc1)C(=O)N[C@@H](CC(C)C)C(=O)N[C@@H](CC(N)=O)C(=O)N[C@@H](CO)C(=O)N[C@H](C(=O)N[C@@H](CC(C)C)C(=O)N[C@H](C(N)=O)[C@@H](C)O)C(C)C) [Ac--(SEQ ID NO: 91)--NH2, residue before ^26 lost in print, probably Val^26]	2.8	1.5
Ac--[N--Me--Ala^1, Lys^12, Nle^17, Val^26, Thr^28 ]--VIP (Ac-[NMeA]SDAVFTDNYTKLRKQ[Nle]AVKKYLNSVLT-NH2; SMILES CCCC[C@H](NC(=O)[C@H](CCC(N)=O)NC(=O)[C@H](CCCCN)NC(=O)[C@H](CCCNC(=N)N)NC(=O)[C@H](CC(C)C)NC(=O)[C@H](CCCCN)NC(=O)[C@@H](NC(=O)[C@H](Cc1ccc(O)cc1)NC(=O)[C@H](CC(N)=O)NC(=O)[C@H](CC(=O)O)NC(=O)[C@@H](NC(=O)[C@H](Cc1ccccc1)NC(=O)[C@@H](NC(=O)[C@H](C)NC(=O)[C@H](CC(=O)O)NC(=O)[C@H](CO)NC(=O)[C@H](C)N(C)C(C)=O)C(C)C)[C@@H](C)O)[C@@H](C)O)C(=O)N[C@@H](C)C(=O)N[C@H](C(=O)N[C@@H](CCCCN)C(=O)N[C@@H](CCCCN)C(=O)N[C@@H](Cc1ccc(O)cc1)C(=O)N[C@@H](CC(C)C)C(=O)N[C@@H](CC(N)=O)C(=O)N[C@@H](CO)C(=O)N[C@H](C(=O)N[C@@H](CC(C)C)C(=O)N[C@H](C(N)=O)[C@@H](C)O)C(C)C)C(C)C) [Ac--(SEQ ID NO: 88)--NH2]	7.2	8.5
Ac--[p-F--Phe^6, Glu^8, Lys^12, Nle^17, Ala^19, Val^26, Thr^28, Gly^29,30, Cys(Acm)^31 ]--VIP (Ac-HSDAV[Phe(4-F)]TENYTKLRKQ[Nle]AAKKYLNSVLTGG[Cys(Acm)]-NH2; SMILES CCCC[C@H](NC(=O)[C@H](CCC(N)=O)NC(=O)[C@H](CCCCN)NC(=O)[C@H](CCCNC(=N)N)NC(=O)[C@H](CC(C)C)NC(=O)[C@H](CCCCN)NC(=O)[C@@H](NC(=O)[C@H](Cc1ccc(O)cc1)NC(=O)[C@H](CC(N)=O)NC(=O)[C@H](CCC(=O)O)NC(=O)[C@@H](NC(=O)[C@H](Cc1ccc(F)cc1)NC(=O)[C@@H](NC(=O)[C@H](C)NC(=O)[C@H](CC(=O)O)NC(=O)[C@H](CO)NC(=O)[C@H](Cc1c[nH]cn1)NC(C)=O)C(C)C)[C@@H](C)O)[C@@H](C)O)C(=O)N[C@@H](C)C(=O)N[C@@H](C)C(=O)N[C@@H](CCCCN)C(=O)N[C@@H](CCCCN)C(=O)N[C@@H](Cc1ccc(O)cc1)C(=O)N[C@@H](CC(C)C)C(=O)N[C@@H](CC(N)=O)C(=O)N[C@@H](CO)C(=O)N[C@H](C(=O)N[C@@H](CC(C)C)C(=O)N[C@H](C(=O)NCC(=O)NCC(=O)N[C@@H](CSCNC(C)=O)C(N)=O)[C@@H](C)O)C(C)C) [Ac--(SEQ ID NO: 67)--NH2]	1.9	0.30
